Reference: publication PMC12670405, “Second-Generation AURKA-Targeting PROTACs: Structural Optimization toward in Vivo Degradation in Neuroblastoma” (Journal of Medicinal Chemistry, 2025)
Like-named read-outs stand apart in the source and are kept apart here.

Assays:
HEK293T = experiment: IncuCyte live-cell imaging, antiproliferative effect; assay type: cell-based; settings: Homo sapiens, HEK-293T
How it was run: (§1)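 Cells seeded in 384-well plates (neuroblastoma 1200–5000, HEK293T 600 cells/well), adhered overnight, then compound-treated in duplicate or triplicate; confluency tracked by IncuCyte live-cell imaging. Normalized confluence averaged from 3 experiments; absolute GI50 interpolated from four-parameter variable-slope curves.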

JRKL = experiment: LC-MS/MS proteome profiling; assay type: cell-based, Homo sapiens; design: key to Significant (3h SK5527vs3h DMSO) FDR0 05 / Significant (24h SK5527vs24h DMSO) FDR0 05: +: Statistical significance for differential regulation was set to a false discovery rate (FDR) of < 0.05 and |log2FC| = 2
Protocol: IMR-32 cells were seeded in T-25 flasks at a density of 1.7 million cells/flask and treated the next day with DMSO (negative control), SK5527 (500 nM) or MK-5108 (500 nM) for 3 or 24 h (data for MK-5108 not discussed in this manuscript). Cell pellets were harvested at the respective time points, lysed, and the concentration of the obtained protein lysates measured as previously described. Details on further sample preparation, LC–MS/MS, and data analysis can be found in the Supporting Information. The LC–MS/MS proteomics data have been deposited to the ProteomeXchange Consortium via the PRIDE partner repository with the data set identifier PXD061539.
Supplementary Methods 1 – LC-MS/MS proteomics
From each sample, 100 µg of protein was isolated, the volumes were equalized with water and SDS and TEAB were added to a final concentration of 5% and 50 mM, respectively. Proteins were reduced and alkylated by addition of 10 mM Tris(2-carboxyethyl)phosphine hydrochloride and 40 mM chloroacetamide and incubation for 30 minutes at 25°C in the dark. Phosphoric acid was added to a final concentration of 1.2%, and samples were subsequently diluted 7-fold with binding buffer containing 90% methanol in 100 mM TEAB, pH 7.55. The samples were loaded on the 96-well S-Trap™ plate (Protifi), placed on top of a deepwell plate, and centrifuged for 2 min at 1,500 x g at RT. After protein binding, the S-trap™ plate was washed three times by adding 200 µl binding buffer and centrifugation for 2 min at 1,500 x g at RT. A new deepwell receiver plate was placed below the 96-well S-Trap™ plate and 50 mM TEAB containing trypsin (1/100, w/w) was added for digestion overnight at 37°C.
Using centrifugation for 2 min at 1,500 x g, peptides were eluted in three steps, first with 80 µl 50 mM TEAB, then with 80 µl 0.2% formic acid (FA) in water and finally with 80 µl 0.2% FA in water/acetonitrile (ACN) (50/50, v/v). Eluted peptides were dried completely by vacuum centrifugation.
Peptides were re-dissolved in 20 µl loading solvent A (0.1% trifluoroacetic acid in water/acetonitrile (ACN) (99.5:0.5, v/v)) of which 2 µl of sample was injected for LC-MS/MS analysis on an Ultimate 3000 ProFlow nanoLC system in-line connected to a Orbitrap Exploris 240 mass spectrometer (Thermo) equipped with pneu-Nimbus dual ion source (Phoenix S&T). Trapping was performed at 20 μl/min for 2 min in loading solvent A on a PepMap™ Neo Trap column (Thermo scientific, 300 μm internal diameter (I.D.), 5 μm beads). The peptides were separated on a 250 mm Odyssey Ultimate, 1.7µm C18, 75 µm inner diameter (Ionopticks) kept at a constant temperature of 45°C. Peptides were eluted by a gradient reaching 26,4 % MS solvent B (0.1% FA in acetonitrile) after 80 min, 44% MS solvent B at 95 min, 56% MS solvent B at 100min followed by a 5-minutes wash at 56% MS solvent B and re-equilibration with MS solvent A (0.1% FA in water). The flow rate was set to 250 nl/min. The mass spectrometer was operated in data-independent mode, automatically switching between MS and MS/MS acquisition. Full-scan MS spectra ranging from 375-1500 m/z with a normalized target value of 300%, a maximum fill time of 25 ms and a resolution at of 60,000 were followed by 30 quadrupole isolations with a precursor isolation width of 10 m/z for HCD fragmentation at an NCE of 30% after filling the trap at a normalized target value of 2000% for maximum injection time of 45 ms. MS2 spectra were acquired at a resolution of 15,000 with a scan range of 200-1800 m/z in the Orbitrap analyser without multiplexing. The isolation intervals were set from 400 – 900 m/z with a width of 10 m/z using window placement optimization. The polydimethylcyclosiloxane background ion at 445.120028 Da was used for internal calibration (lock mass) and QCloud has been used to control instrument longitudinal performance during the project.
Analysis of the mass spectrometry data was performed in DiaNN (version 1.9). Precursor false discovery rate was […]
set at 1%. […]

IMR-32 = experiment: IncuCyte live-cell imaging, antiproliferative effect; assay type: cell-based; settings: Homo sapiens, IMR-32, 72 h, read-out: Cell GI50 72h, IMR-32
How it was run: as §1

Row | SMILES | GI50 (HEK293T; 72 h, read-out: Cell GI50 72h) [nM] | GI50 (HEK293T; 72h, read-out: GI50) [nM] | Significant (3h SK5527vs3h DMSO) FDR0 05 (JRKL; IMR-32, 3h) | logFC (3h SK5527vs3h DMSO) (JRKL; IMR-32, 3h) | Significant (24h SK5527vs24h DMSO) FDR0 05 (JRKL; IMR-32, 24h) | logFC (24h SK5527vs24h DMSO) (JRKL; IMR-32, 24h) | logFC JRKL (JRKL; SK5527 vs DMSO (3h)) | logFC JRKL (JRKL; SK5527 vs DMSO (24h)) | GI50 (IMR-32) [nM]
1 | Cc1cc(Nc2ccc(F)c(CC3(C(=O)N4CCC(F)(CN5CCN(c6ccc(N7CCC(=O)NC7=O)cn6)CC5)CC4)CCN(Cc4cccc(Cl)c4F)CC3)n2)n[nH]1 [SK5527] | 408 | ~500 | + | 5.38 | + | 3.68 | 5.38 | 3.68 | –
2 | O=C1CCC(N2C(=O)c3cccc(OCCOCCOCCOCCNC(=O)[C@]4(Cc5cccc(Nc6nccs6)n5)CC[C@@H](Oc5cccc(Cl)c5F)CC4)c3C2=O)C(=O)N1 (stereo partly drawn) [SK2188, reference compound] | – | – | – | – | – | – | – | – | 10
